Data: patent US7914821B2, “Pharmaceutical composition for prevention and/or treatment of bone loss” (KO DA Pharmaceuticals Co., Ltd., priority 2008, dated 2011)

B1: noggin: noggin, 1 μg/ml, suppressed the imperatorin or bergapten induced-ALP activity (protein, UniProt Q13253 28-232, looked up)
Noggin: QHYLHIRPAPSDNLPLVDLIEHPDPIFDPKEKDLNETLLRSLLGGHYDPGFMATSPPEDRPGGGGGAAGGAEDLAELDQLLRQRPSGAMPSEIKGLEFSEGLAQGKKQRLSKKLRRKLQMWLWSQTFCPVLYAWNDLGSRFWPRYVKVGSCFSKRSCSVPEGMVCKPSKSVHLTVLRWRCQRRGGQRCGWIPIQYPIISECKCSC

What was measured:
Assay type in all cases: cell-based, rat
EPK protein = assay: Effect of ERK inhibitor on induced phosphorylation of EPK protein; settings: inhibitor for 30 minutes before imperatorin and bergapten; FIGS. 11A-11B
Description: Bone cells was cultured in 6-well plate and treated with 10 μM of imperatorin and bergapten for 1, 3, 6, 12, and 24 hrs, respectively. After treatment, the culture medium was replaced with a lysis buffer containing 50 mM HEPES (PH 7.4), 150 mM NaCl, 4 mM EDTA, 10 mM Na4P2O7, 100 mM NaF, 2 mM Na3VO4, 1% (v/v) Triton X-100, 0.25% (w/v) sodium deoxycholate, 50 mM 4-(2-aminoethyl)benzene sulfonylfluoride, 50 μg/ml leupeptin, and 20 μg/ml aprotinin, and then centrifuged at 13000 rpm for 15 minutes to obtain the protein pellets. 30 μg of proteins were dissolved in 5× Laemmli buffer, boiled at 95° C. for 5 minutes, and then subjected to SDS-PAGE gel (8%) electrophoresis. Proteins on the gel were then transferred to a PVDF membrane. The PVDF membrane was blocked in 4% BSA solution for 1 hour at room temperature. The blocked membrane was then incubated in PBST buffer (0.1% Tween-20) containing p-SMAD, p-ERK, or p38 primary antibody. Following incubation with primary antibody, the membrane was washed three times with PBST, and then incubated for 1 hr at room temperature with the secondary antibody, an anti-mouse or anti-goat IgG labeled with horseradish peroxidase. Following incubation with the secondary antibody, the membrane was washed three times with PBST, and detected by an […] chemiluminescence using an ECL blotting substrate according to the manufacturer's instructions. […]

Bone cells [1] = assay: Effect of p38 and ERK inhibitors on ALP activity in bone cells; settings: 10 μM inhibitor with 10 μM imperatorin or bergapten, 48 hrs; FIG. 11C
Description: (§1) Rat primary osteoblast was isolated from the parietal bone of gestation day 18 embryos of Sprague-Dawley rats. After being slaughtered, the embryo rats were obtained from the uteruses of the rats, and calvarium was isolated from the embryo rats. Parietal bone was cut from the calvarium and digested by 0.1% collagenase for 20 minutes to release the bone cells from the bone tissue. The digestion step was repeated five times. The collected bone cells were cultured in α-MEM containing 1% penicillin-streptomycin and 10% FBS in a humidified atmosphere of 5 percent carbon dioxide. When cells were attached and confluence, they were sub-cultured, which was called “passage 2 (P2)”. The passage was for analogizing. 2 to 5 passage cells were used for the experiments.
Bone cells were cultured and treated with (1) 10 μM SB203580, (2) 10 μM PD98059, (3) 10 μM imperatori, (4) 10 μM bergapten, (5) 10 μM imperatorin+SB203580, (6) 10 μM bergapten+SB203580, (7) 10 μM imperatorin+PD98059 ? (8) 10 μM bergapten+PD98059 for 48 hrs. After treatment, the bone cells were lysed in 0.2% […] solution and centrifuged at 1500×g for 5 minutes. The supernatant was analyzed by an ALP kit such as described above to obtain the ALP activity. The ALP activity in the control group which was treated with 0.1% DMSO was defined as 100%. […]

p38 = assay: Effect of p38 inhibitor on induced phosphorylation of p38; settings: inhibitor for 30 minutes before imperatorin and bergapten; FIGS. 11A-11B
Description: Bone cells was cultured in 6-well plate and treated with 10 μM of imperatorin and bergapten for 1, 3, 6, 12, and 24 hrs, respectively. […] 30 μg of proteins were dissolved in 5× Laemmli buffer, boiled at 95° C. for 5 minutes, and then subjected to SDS-PAGE gel (8%) electrophoresis. Proteins on the gel were then transferred to a PVDF membrane. The PVDF membrane was blocked in 4% BSA solution for 1 hour at room temperature. The blocked membrane was then incubated in PBST buffer (0.1% Tween-20) containing p-SMAD, p-ERK, or p38 primary antibody. Following incubation with primary antibody, the membrane was washed three times with PBST, and then incubated for 1 hr at room temperature with the secondary antibody, an anti-mouse or anti-goat IgG labeled with horseradish peroxidase. Following incubation with the secondary antibody, the membrane was washed three times with PBST, and detected by an enzyme-linked chemiluminescence using an ECL blotting substrate according to the manufacturer's instructions.
In the control group, a non-phosphorylation p38 and non-phosphorylation EPK proteins were subjected to SDS-PAGE gel electrophoresis.

Bone cells [2] = assay: ALP activity with imperatorin, bergapten and noggin; settings: 1 μg/ml noggin with 10 μM imperatorin or 10 μM bergapten, 48 hrs; FIG. 9C
Description: as §1
Bone cells were treated with (1) 10 μM imperatorin, (2) 10 μM bergapten, (3) 10 μM imperatorin+noggin, (4) 10 μM bergapten+noggin, and (5) 1 μg/ml noggin for 48 his, respectively. After treatment, the bone cells were lysed in 0.2% […] solution, and then centrifuged at 1500×g for 5 minutes to obtain a supernatant. The supernatant was analyzed by ALP kit as described above to obtain the ALP activity. The ALP activity in the control group which was treated with 0.1% DMSO was defined as 100%. Referring to FIG. 9C, noggin suppressed the imperatorin or bergapten induced-ALP activity.

Row | Molecule | imperatorin and bergapten induced-phosphorylation (EPK protein) (EPK protein) | imperatorin and bergapten induced-ALP activity (Bone cells [1]) | imperatorin and bergapten induced-phosphorylation (p38) (p38) | imperatorin or bergapten induced-ALP activity (Bone cells [2])
1 | COc1cccc(-c2cc(=O)c3ccccc3o2)c1N [PD98059] | suppressed | suppressed |  | 
2 | C[S+]([O-])c1ccc(-c2nc(-c3ccncc3)c(-c3ccc(F)cc3)[nH]2)cc1 (centres unmarked) [SB203580] |  | suppressed | suppressed | 
3 | B1 |  |  |  | suppressed
